Test results from patent US8835629B2, “Anti-cancer agents” (The Walter and Eliza Hall Institute of Medical Research, priority 2010, dated 2014).
Blank lines part the entries; values can stand above or below the compound they belong to.

Columns and labels:
LIM1215 = experiment: Antimitotic effects (G2/M cell cycle block, DNA staining, ModFit) on LIM1215; format: cell-based, human; conditions: for % of Taxol (proportion of cells in G2M test/proportion of cells in G2M Taxol): 24 hrs, standard 1 μM Taxol; for IC50: Homo sapiens, inhibitors added to cells in log-growth for 24 hrs, read-out: IC50 for progression through the cell cycle
From the text: (§1) For the initial studies two colon carcinoma cell lines (LIM1215 and SW480) and two breast cancer cell lines (MDA-MB-231 and MCF-7) were used. Taxol was used as comparator in these experiments (Table 1).

SW480 = experiment: Antimitotic effects (G2/M cell cycle block, DNA staining, ModFit) on SW480; format: cell-based, human; conditions: for % of Taxol (proportion of cells in G2M test/proportion of cells in G2M Taxol): 24 hrs, standard 1 μM Taxol; for IC50: Homo sapiens, inhibitors added to cells in log-growth for 24 hrs, read-out: IC50 for progression through the cell cycle
From the text: as §1

MDA-MB-231 = experiment: Antimitotic effects (G2/M cell cycle block, DNA staining, ModFit) on MDA-MB-231; format: cell-based, human; conditions: for % of Taxol (proportion of cells in G2M test/proportion of cells in G2M Taxol): 24 hrs, standard 1 μM Taxol; for IC50: Homo sapiens, inhibitors added to cells in log-growth for 24 hrs, read-out: IC50 for progression through the cell cycle
From the text: as §1

MCF-7 = experiment: Antimitotic effects (G2/M cell cycle block, DNA staining, ModFit) on MCF-7; format: cell-based, human; conditions: for % of Taxol (proportion of cells in G2M test/proportion of cells in G2M Taxol): 24 hrs, standard 1 μM Taxol; for IC50: Homo sapiens, MCF7, inhibitors added to cells in log-growth for 24 hrs, read-out: IC50 for progression through the cell cycle
From the text: as §1

[1] = Dose escalation in mice (tolerability and toxicity); format: in vivo; conditions: C57Bl/6 mice, subcutaneous in DMSO, sacrificed 24 hrs post-injection
Experimental: Compound 1 was initially tested for tolerability and toxicity in mice. C57Bl/6 mice (aged 8-12 weeks) were injected subcutaneously with escalating doses of Compound 1 in a constant volume of DMSO. Mice were sacrificed 24 hrs post-injection. There were no adverse effects of doses up to 80 mg/kg within this time-frame. Thus the compound is well tolerated at doses that far exceed the IC50 observed “in vitro”.
These minor skin lesions healed readily within 2-3 days.

[2] = system: LIM2537 human colon carcinoma cell line; experiment: MTS assay using LIM2537 human colon carcinoma cell line; format: cell-based; conditions: 96 h, LIM2537, 4 days incubation, read-out: IC50 Range
Experimental: • Cells plated at […] in 100 μl medium+5% FCS (+Adds^1): • Cells incubated overnight: • Titrate inhibitors in a fresh plate in 150 μl medium • Transfer 100 μl titrated compounds to matching wells of the cell plate. • Incubate a further 4 days: • Add 10 μl MTS^2 or MTT^3 for 1.5 to 2 hours and read on Multiscanner (wavelengths 492/690) ^1 Additives for culture of LIM cell lines: 10 μM thioglycerol, 0.025 U/ml insulin, 1 μg/ml hydrocortisone. ^2 3-(4,5-dimethylthiazol-2-yl)-5-(3-carboxymethoxyphenyl)-2-(4-sulfophenyl)-2H-tetrazolium. ^3 3-(4,5-Dimethylthiazol-2-yl)-2,5-diphenyltetrazolium bromide
• LIM2537 human colon carcinoma cell line, grown in RPMI+Adds^1+5% FCS
Cells are trypsinized and washed ×2 in medium+5% FCS and plate out at 10^4 cells per well in 100 μl.
Incubate plates o/n 37° C.+5%-10% CO2 incubator.
Inhibitors are dissolved in DMSO to make 10 mM stocks and titrated in a 96 well plate in duplicate to use as the stock for the test plate. Titration range from 40 μM down to […] in ½ dilutions and 100 μl of each dilution transferred to the appropriate wells of the test plate that contains the cells (also in 100 μl) which results in the final concentration of the inhibitors being 20 μM down to 0.01 μM across the rows in duplicate. Three inhibitors are tested per plate (Rows A-F).
Each plate has the following: • Rows A,B: Inhibitor 1 dilutions, 200 μl per well • Rows C,D: Inhibitor 2 dilutions, 200 μl per well • Rows E,F: Inhibitor 3 dilutions, 200 μl per well • Control row G1-6: Medium+5% FCS (for maximum growth) • Control row G7-12: Taxol (250 nM for maximal inhibition) • Control row H: Remove medium from cells and replace with 200 μl Serum Free medium for serum free growth rate.
Incubate plates for 4 days in incubator. Process with MTS or MTT as outlined below.
To each well add 10 μl MTS (Sigma) solution. Incubate MTS for 1.5 to 2 hours and MTT for 4 hours. Stop reaction by adding 10 μl 10% SDS to each well. Read on Multiscan (492/690) plate reader, plot colour change versus concentration of inhibitor to establish the IC50.

tubulin = experiment: Tubulin polymerization in intact cells (soluble vs polymerized tubulin, immunoblot); format: cell-based; conditions: LIM 1215 cells, NP-40 lysis, immunoblot with β-tubulin antibodies
Experimental: Equal volumes of supernatant and resuspended insoluble material were analyzed by SDS/PAGE and immunoblotting with antibodies to β-tubulin. S=soluble and P=polymerized tubulin. […] To monitor the effects of triazines on tubulin, the present inventors tested tubulin polymerization in intact cells following exposure to the drug. Cells treated with Taxol or with compound 3 were lysed in hypotonic buffer containing 0.5% NP-40 and the cellular extracts were centrifuged at high speed. Polymerized tubulin is detergent-insoluble: thus after this treatment soluble tubulin is recovered in the supernatants (S), and polymerized tubulin in the cellular pellets (P). The relative proportion of the two forms was monitored by SDS/PAGE and immunoblotting with tubulin-specific antibodies.

SMILES: COc1ccc(CNc2nc(NCc3ccc(OC)cc3)nc(NN3CC(=O)NC3=O)n2)cc1 [Compound 1, 1-[4,6-Bis-(4-methoxybenzylamino)-{1,3,5}-triazin-2-yl-amino]-imidazolidine-2,4-dione]
% of Taxol (proportion of cells in G2M test/proportion of cells in G2M Taxol) (LIM1215): 105%
IC50 (LIM1215): 70 nM
% of Taxol (proportion of cells in G2M test/proportion of cells in G2M Taxol) (SW480): 120%
IC50 (SW480): 50 nM
% of Taxol (proportion of cells in G2M test/proportion of cells in G2M Taxol) (MDA-MB-231): 94%
IC50 (MDA-MB-231): 13 nM
% of Taxol (proportion of cells in G2M test/proportion of cells in G2M Taxol) (MCF-7): 108%
IC50 (MCF-7): 9 nM
Doses with no adverse effects [1]: up to 80 mg/kg

SMILES: COc1ccc(CNc2nc(NCc3ccc(OC)cc3)nc(NC3NC(=O)N(C)C3=O)n2)cc1 (centres unmarked) [Compound 3, 5-[4,6-Bis-(4-methoxy-benzylamino)-[1,3,5]-triazin-2-ylamino]-3-methyl-imidazolidine-2,4-dione]
% of Taxol (proportion of cells in G2M test/proportion of cells in G2M Taxol) (LIM1215): 108%
IC50 (LIM1215): 3000 nM
% of Taxol (proportion of cells in G2M test/proportion of cells in G2M Taxol) (SW480): 106%
IC50 (SW480): 1450 nM
% of Taxol (proportion of cells in G2M test/proportion of cells in G2M Taxol) (MDA-MB-231): 93%
IC50 (MDA-MB-231): 3000 nM
% of Taxol (proportion of cells in G2M test/proportion of cells in G2M Taxol) (MCF-7): 102%
IC50 (MCF-7): 450 nM

SMILES: COc1ccc(CNc2nc(NCc3ccc(CN4CCCCC4)cc3)nc(NN3CC(=O)NC3=O)n2)cc1 [Compound 13, 1-((4-((4-methoxybenzyl)amino)-6-((4-(piperidin-1-ylmethyl)benzyl)amino)-1,3,5-triazin-2-yl)amino)imidazolidine-2,4-dione]
IC50 [2]: 100 to 1000 nM

SMILES: COc1ccc(CNc2nc(NCc3ccc(CN4CCOCC4)cc3)nc(NN3CC(=O)NC3=O)n2)cc1 [Compound 14, 1-((4-((4-methoxybenzyl)amino)-6-((4-(morpholinomethyl)benzyl)amino)-1,3,5-triazin-2-yl)amino)imidazolidine-2,4-dione]
IC50 [2]: > 10000 nM

SMILES: COc1ccc(CNc2nc(NCc3ccc(CN4CCN(C)CC4)cc3)nc(NN3CC(=O)NC3=O)n2)cc1 [Compound 16, 1-((4-((4-methoxybenzyl)amino)-6-((4-((4-methylpiperazin-1-yl)methyl)benzyl)amino)-1,3,5-triazin-2-yl)amino)imidazolidine-2,4-dione]
IC50 [2]: ≤ 100 nM

SMILES: COc1ccc(CNc2nc(NCc3ccc(N4CCN(C)CC4)cc3)nc(NN3CC(=O)NC3=O)n2)cc1 [Compound 19, 1-((4-((4-methoxybenzyl)amino)-6-((4-(4-methylpiperazin-1-yl)benzyl)amino)-1,3,5-triazin-2-yl)amino)imidazolidine-2,4-dione]
IC50 [2]: 100 to 1000 nM

SMILES: COc1ccc(CNc2nc(NCc3cccc(N4CCCCC4)c3)nc(NN3CC(=O)NC3=O)n2)cc1 [Compound 20, 1-((4-((4-methoxybenzyl)amino)-6-((3-(piperidin-1-yl)benzyl)amino)-1,3,5-triazin-2-yl)amino)imidazolidine-2,4-dione]
IC50 [2]: 100 to 1000 nM

SMILES: COc1ccc(CNc2nc(NCc3cccc(N4CCOCC4)c3)nc(NN3CC(=O)NC3=O)n2)cc1 [Compound 21, 1-((4-((4-methoxybenzyl)amino)-6-((3-morpholinobenzyl)amino)-1,3,5-triazin-2-yl)amino)imidazolidine-2,4-dione]
IC50 [2]: 1000 to 10000 nM

SMILES: COc1ccc(CNc2nc(NCc3cccc(N4CCN(C)CC4)c3)nc(NN3CC(=O)NC3=O)n2)cc1 [Compound 22, 1-((4-((4-methoxybenzyl)amino)-6-((3-(4-methylpiperazin-1-yl)benzyl)amino)-1,3,5-triazin-2-yl)amino)imidazolidine-2,4-dione]
IC50 [2]: > 10000 nM

SMILES: COc1ccc(CNc2nc(NCc3ccc(OCCN4CCOCC4)cc3)nc(NN3CC(=O)NC3=O)n2)cc1 [Compound 24, 1-((4-((4-methoxybenzyl)amino)-6-((4-(2-morpholinoethoxy)benzyl)amino)-1,3,5-triazin-2-yl)amino)imidazolidine-2,4-dione]
IC50 [2]: 100 to 1000 nM

Further lines, with some results ahead:

IC50 [2]: 1000 to 10000 nM
SMILES: CCN(CC)Cc1ccc(CNc2nc(NCc3ccc(OC)cc3)nc(NN3CC(=O)NC3=O)n2)cc1 [Compound 15, 1-((4-((4-((diethylamino)methyl)benzyl)amino)-6-((4-methoxybenzyl)amino)-1,3,5-triazin-2-yl)amino)imidazolidine-2,4-dione]

IC50 [2]: ≤ 100 nM
SMILES: COc1ccc(CNc2nc(NCc3ccc(N4CCCCC4)cc3)nc(NN3CC(=O)NC3=O)n2)cc1 [Compound 17, 1-((4-((4-methoxybenzyl)amino)-6-((4-(piperidin-1-yl)benzyl)amino)-1,3,5-triazin-2-yl)amino)imidazolidine-2,4-dione]

IC50 [2]: 100 to 1000 nM
SMILES: COc1ccc(CNc2nc(NCc3ccc(N4CCOCC4)cc3)nc(NN3CC(=O)NC3=O)n2)cc1 [Compound 18, 1-((4-((4-methoxybenzyl)amino)-6-((4-morpholinobenzyl)amino)-1,3,5-triazin-2-yl)amino)imidazolidine-2,4-dione]

IC50 [2]: 1000 to 10000 nM
SMILES: CCN(CC)CCOc1ccc(CNc2nc(NCc3ccc(OC)cc3)nc(NN3CC(=O)NC3=O)n2)cc1 [Compound 23, 1-((4-((4-(2-(diethylamino)ethoxy)benzyl)amino)-6-((4-methoxybenzyl)amino)-1,3,5-triazin-2-yl)amino)imidazolidine-2,4-dione]

IC50 (SW480): 8 nM
IC50 (MDA-MB-231): 8 nM
IC50 (MCF-7): 8 nM
SMILES: CC(=O)O[C@H]1C(=O)[C@@]2(C)[C@H]([C@H](OC(=O)c3ccccc3)[C@]3(O)C[C@H](OC(=O)[C@H](O)[C@@H](NC(=O)c4ccccc4)c4ccccc4)C(C)=C1C3(C)C)[C@]1(OC(C)=O)CO[C@@H]1C[C@@H]2O [Taxol, reference compound]
% of Taxol (proportion of cells in G2M test/proportion of cells in G2M Taxol) (LIM1215): 100%
IC50 (LIM1215): 10 nM
% of Taxol (proportion of cells in G2M test/proportion of cells in G2M Taxol) (SW480): 100%
% of Taxol (proportion of cells in G2M test/proportion of cells in G2M Taxol) (MDA-MB-231): 100%
% of Taxol (proportion of cells in G2M test/proportion of cells in G2M Taxol) (MCF-7): 100%
Stabilization of tubulin in treated cells (soluble vs polymerized) (tubulin): strongly stabilized tubulin in a dose-dependent manner
